Laboratory results published in US10570176B2, “Anti-hepatitis B virus X protein polypeptide pharmaceutical” (priority 2015, dated 2020).
Non-standard residues stand in square brackets, D forms with d. No end group written: not given here.

Assays:
[1] = test system: liver cancer HepAD38 cells integrated with HVB DNA; test: HBeAg secretion ELISA in HepAD38 cells; type: cell-based; settings: for Inhibition of HBeAg secretion levels: 10 μM
Method: (§1) 3. Analysis of function of D-TTK001 on HBeAg secreation in liver cancer cells utilizing enzyme-linked immunosorbent assay (ELISA)
(§2) (i) Biosafety cabinet was ultraviolet sterilized for 30 min and purged for 30 min; DMEM/F12 (1:1) culture medium containing 15% fetal bovine serum, HepAD38 cells (or HepG2.2.15 cells) were taken out, sterilized with 75% alcohol, and placed in the biosafety cabinet.
(§3) (ii) Under aseptic conditions, discard old culture medium, add 3 mL 1×PBS each time, wash twice, add 1 mL 0.25% trypsin, the cells were digested until cell rounding as observed in microscope. Add 5 mL culture medium, dispense cells, count with hemocytometer, and dilute with culture medium to a cell number of 1˜2×10^4 cells/mL.
(§4) (iii) Plating 96-well plate. Under aseptic conditions, discard old culture medium, add 3 mL 1×PBS each time, wash twice, add 1 mL 0.05% trypsin, the cells were digested until cell rounding as observed in microscope. Add 10 mL culture medium, dispense cells, count with hemocytometer, and dilute with DMEM/F12(1:1) culture medium, add 100 μL cell suspension into each well to a cell number of 1˜2×10^3 cells/mL. The outer-most wells are not added with cells. Culturing until cell attachment (usually 12 hrs.) and extension. Subsequent tests can be conducted when cells are in good condition.
(2) Applying D-TTK001 (or L-TTK001, i.e., anti-HBxP1#) to liver cancer HepAD38 cells (or HepG2.2.15 cells)
10 mM D-TTK001 (or L-TTK001) mother solution was serially diluted from high concentration to low concentration, added into liver cancer HepAD38 cells (or HepG2.2.15 cells) culture solution to obtain final concentrations of D-TTK001 (or L-TTK001) of 0.1 μM, 1 μM, 10 and 100 μM in respective groups. […]
(3) Applying ELISA to measure HBeAg content in HepAD38 cell (or HepG2.2.15 cell) culture medium
(i) Balancing: place HBeAg assay kit in room temperature for 30 min.
(ii) Preparing solution: dilute concentrated wash liquid for 25 times with purified water.
(iii) Taking out the plate: take out the reaction plate according to experimental requirements (3 wells for negative control, 1 well for positive control, and 1 well for blank control).
(iv) Adding sample: add 75 μL of test samples or negative/positive control into respective wells, gently shake and mix.
(v) Incubating: after sealed with microplate sealer, incubate at 37° C. for 60 min.
(vi) Adding enzyme: add 50 μL of enzyme conjugates into each well except for blank wells, gently shake and mix.
(vii) Incubating: after sealed with microplate sealer, incubate at 37° C. for 30 min.
(viii) Washing plate: remove microplate sealer carefully, manually wash plate for 5 times, pat dry.
(ix) Developing color: add 50 μL each of color-developing agent A and B liquid, gently shake and mix, develop color in dark placed at 37° C. for 30 min.
(§5) (x) Stopping: add 50 μL of stop solution into each well, gently shake and mix, measure the result in ten minutes. Set wavelength of microplate reader to 450 nm, measure OD value for each well after zero setting with blank wells.
The invention also investigates the role of the functional variants of the polypeptide and functional fragments thereof. The sequences as shown in the following table are artificially synthesized D-amino acid substituted sequences on the basis of L-TTK001 (i.e., anti-HBxP1#). The polypeptide fragments were artificially synthesized according to the sequences (method as above), and then, above-mentioned ELISA method was adopted to observe the change in the functions of the polypeptides.

[2] = molecular target: T1, HBx protein (Hepatitis B virus genotype D subtype ayw, UniProt P03165); test: In vitro binding to recombinantly expressed HBx protein, Biacore 3000; settings: in vitro binding to HBx, in vitro binding analysis results
T1 construct: made in house
T1 sequence (P03165 whole entry): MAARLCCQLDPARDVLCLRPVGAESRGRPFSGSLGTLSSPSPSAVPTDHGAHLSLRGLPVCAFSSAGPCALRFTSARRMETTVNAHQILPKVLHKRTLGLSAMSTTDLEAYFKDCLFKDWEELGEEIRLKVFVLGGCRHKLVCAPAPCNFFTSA
Method: The recombinant plasmid (pET-30a-HBx) expressing HBx gene was self-constructed and preserved (Zhang H, et al. J Biomed Biotechnol, doi:10.1155/2009/289068), and then expression and purification of HBx were conducted according to above reference for the measurement of in vitro binding ability. Biacore 3000 biomolecular interaction analyzing unit (manufactured by GE Healthcare) was utilized to measure in vitro binding ability of polypeptide D-TTK001 to recombinantly expressed HBx protein. Polypeptide at different concentrations were injected for 180 seconds at a rate of 30 μL/min. In dissociation stage, HBS-EP buffer was injected for 900 seconds at a rate of 30 μL/min, then at a rate of 30 μL/min, 2 shots of 1 mM NaOH were injected for 20 seconds to regenerate the chip. All signals were calibrated using channel 1 as the reference channel. Binding measurement was conducted twice, respectively, wherein in the first measurement, HBX was injected into the channel of the coupled polypeptide and the blank channel at concentrations of 0 nM, 10 nM, 50 nM, 100 nM, 500 nM and 600 nM, respectively. Binding time was 180 seconds and dissociation time was 400 seconds. On chip surface, 1 mM NaOH was injected for 20 seconds at a rate of 30 μL/min for regeneration. In the second measurement, HBX was injected into the channel of coupled polypeptide and the blank channel at concentrations of 0 nM, 10 nM, 50 nM, 588 nM, 1 μM, and 2 μM, respectively. Binding time was 180 seconds and dissociation time was 400 seconds. On chip surface, 1 mM NaOH was injected for 20 seconds at a rate of 30 μL/min for regeneration. Results were kinetically analyzed by BIA Evaluation Software.

[3] = test system: HepG2.2.15 cells; test: HBeAg secretion ELISA in HepG2.2.15 cells; type: cell-based; settings: 0.1, 1, 10, 100 μM
Method: as §1, §2, §3
as §4, with “The outer-most wells are not added with cells. Culturing until cell attachment (usually 12 hrs.) and extension. Subsequent tests can be conducted when cells are in good condition.” left out
as §5

[4] = test system: HepAD38 cells; test: MTT assay, proliferation of HepAD38 cells; type: cell-based; settings: 0.1, 1, 10, 100 μM, 48 hrs
Method: (1) Plating cells: suspend HepAD38 cells at exponential phase in RPMI1640 medium with 10% FBS, and plate 4000-5000 cells in a 96-well plate with 100 μL per well.
(2) Culturing cells: within 12 hrs. for adhesion of cultured cells, add different concentrations of synthesized D-TTK001 (or L-TTK001) polypeptides from Example 1 (0.1 μM, 1 μM, 10 μM and 100 μM) into 8 wells for each concentration, and incubate for 48 hrs. in common condition.
(3) Coloration: add 20 μL of MTT solution (5 mg/mL MTT in PBS buffer (pH7.4)) for each well.
(4) Incubate for 4 hrs., and carefully aspirate off the supernatant from the wells. Add 150 μL of DMSO into each well, shake for 10 min until the crystals were dissolved.
(5) Comparison: Read in an ELISA reader at 490 nm to measure the absorbance for each well. Results were calculated using Student's t-test.

| Substance | Inhibition of HBeAg secretion levels [1] | other results |
| --- | --- | --- |
| G-D/S-A-V-M-F-S-S-K-E-R-G (G[dS]AVMFSSKERG) [D-TTK001-1] | inhibits HBeAg secretion levels of HepAD38 cells to various extents | – |
| G-S-A-D/V-M-F-S-S-K-E-R-G (GSA[dV]MFSSKERG) [D-TTK001-3] | inhibits HBeAg secretion levels of HepAD38 cells to various extents | – |
| G-S-A-V-D/M-F-S-S-K-E-R-G (GSAV[dM]FSSKERG) [D-TTK001-4] | inhibits HBeAg secretion levels of HepAD38 cells to various extents | – |
| G-S-A-V-M-D/F-S-S-K-E-R-G (GSAVM[dF]SSKERG) [D-TTK001-5] | inhibits HBeAg secretion levels of HepAD38 cells to various extents | – |
| G-S-A-V-M-F-D/S-S-K-E-R-G (GSAVMF[dS]SKERG) [D-TTK001-6] | inhibits HBeAg secretion levels of HepAD38 cells to various extents | – |
| G-S-A-V-M-F-S-D/S-K-E-R-G (GSAVMFS[dS]KERG) [D-TTK001-7] | inhibits HBeAg secretion levels of HepAD38 cells to various extents | – |
| G-S-A-V-M-F-S-S-D/K-E-R-G (GSAVMFSS[dK]ERG) [D-TTK001-8] | inhibits HBeAg secretion levels of HepAD38 cells to various extents | – |
| G-S-A-V-M-F-S-S-K-D/E-R-G (GSAVMFSSK[dE]RG) [D-TTK001-9] | inhibits HBeAg secretion levels of HepAD38 cells to various extents | – |
| G-S-A-V-M-F-S-S-K-E-D/R-G (GSAVMFSSKE[dR]G) [D-TTK001-10] | inhibits HBeAg secretion levels of HepAD38 cells to various extents | – |
| G-S-D/A-V-M-F-S-S-K-E-R-G (GS[dA]VMFSSKERG) [D-TTK001-2] | inhibits HBeAg secretion levels of HepAD38 cells to various extents | – |
| GSAVMFSSKERG [L-TTK001, Gly-Ser-Ala-Val-Met-Phe-Ser-Ser-Lys-Glu-Arg-Gly, reference compound] | – | Kd [2]: 8 nM; Minimum effective dose on HBeAg secretion levels [3]: 10 µM; Minimum effective dose on HBeAg secretion levels ([1]; 0.1, 1, 10, 100 μM): 10 µM; Minimum effective dose on growth and proliferation (MTT) [4]: 10 µM |
